# Patent publication US9399626B2, “2-thiopyrimidinones” (Pfizer Inc., priority 2011, dated 2016)
# Biological target: T1, MPO (purified from human polynuclear leukocytes) (Homo sapiens, UniProt P05164)
# T1 construct: purified from human polynuclear leukocytes; purchased Calbiochem/EMD Biosciences; host or cells: human polynuclear leukocytes (natural source)
# Assay: MPO Amplex Red Activity Assay
# Type: biochemical
# Conditions: Table 1, 2 μM H2O2, pH 7.4
# Summary of the method: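 Potency is given as kinact/KI: kobs values from 600 s progress curves, minus the uninhibited rate, are fit against inhibitor concentration. Reactions use 2 μM H2O2, 30 μM Amplex Red, pH 7.4 phosphate buffer with NaCl, DTPA and 2% DMSO, started with […] human MPO. Readout is resorufin fluorescence, catalase background subtracted.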
# T1 sequence (P05164 279-745 limits assumed): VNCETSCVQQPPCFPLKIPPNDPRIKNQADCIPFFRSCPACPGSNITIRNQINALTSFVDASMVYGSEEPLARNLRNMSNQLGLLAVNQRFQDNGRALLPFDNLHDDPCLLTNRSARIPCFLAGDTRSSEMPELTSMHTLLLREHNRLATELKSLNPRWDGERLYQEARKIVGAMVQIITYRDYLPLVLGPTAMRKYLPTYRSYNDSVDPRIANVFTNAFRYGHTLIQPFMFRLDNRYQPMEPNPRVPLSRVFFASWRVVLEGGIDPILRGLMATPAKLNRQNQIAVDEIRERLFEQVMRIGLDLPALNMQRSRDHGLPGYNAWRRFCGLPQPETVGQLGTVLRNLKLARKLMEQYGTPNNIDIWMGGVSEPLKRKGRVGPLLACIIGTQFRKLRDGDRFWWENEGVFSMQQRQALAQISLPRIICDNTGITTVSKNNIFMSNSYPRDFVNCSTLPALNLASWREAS
# T1 sequence (P05164 165-273 limits assumed): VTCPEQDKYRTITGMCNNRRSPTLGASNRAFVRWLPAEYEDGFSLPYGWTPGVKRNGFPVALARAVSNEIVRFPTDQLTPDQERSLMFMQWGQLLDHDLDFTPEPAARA
row,Structure (SMILES),MPO kinact/Ki
1,COCCn1c(-c2cccc(O)c2)cc(=O)[nH]c1=S [Example 287],2130 1/s per M
2,"COCCn1c(-c2ccccc2O)cc(=O)[nH]c1=S [Example 288, 6-(2-hydroxyphenyl)-1-(2-methoxyethyl)-2-thioxo-2,3-dihydropyrimidin-4(1H)-one]",4230 1/s per M
3,"COCCn1c(-c2cccc(F)c2)cc(=O)[nH]c1=S [Example 289, 6-(3-fluorophenyl)-1-(2-methoxyethyl)-2-thioxo-2,3-dihydropyrimidin-4(1H)-one]",1580 1/s per M
4,"COCCn1c(-c2ccc(F)cc2)cc(=O)[nH]c1=S [Example 290, 6-(4-fluorophenyl)-1-(2-methoxyethyl)-2-thioxo-2,3-dihydropyrimidin-4(1H)-one]",1890 1/s per M
5,"COCCn1c(-c2cccc(C#N)c2)cc(=O)[nH]c1=S [Example 291, 3-[3-(2-methoxyethyl)-6-oxo-2-thioxo-1,2,3,6-tetrahydropyrimidin-4-yl]benzonitrile]",2450 1/s per M
6,"COCCn1c(-c2ccccc2CO)cc(=O)[nH]c1=S [Example 292, 6-[2-(hydroxymethyl)phenyl]-1-(2-methoxyethyl)-2-thioxo-2,3-dihydropyrimidin-4(1H)-one]",1070 1/s per M
7,"COCCn1c(-c2cccc(OC)c2)cc(=O)[nH]c1=S [Example 293, 1-(2-methoxyethyl)-6-(3-methoxyphenyl)-2-thioxo-2,3-dihydropyrimidin-4(1H)-one]",1810 1/s per M
8,"COCCn1c(-c2ccc(OC)cc2)cc(=O)[nH]c1=S [Example 294, 1-(2-methoxyethyl)-6-(4-methoxyphenyl)-2-thioxo-2,3-dihydropyrimidin-4(1H)-one]",1910 1/s per M
9,"COCCn1c(-c2ccc(OC)nc2)cc(=O)[nH]c1=S [Example 295, 1-(2-methoxyethyl)-6-(6-methoxypyridin-3-yl)-2-thioxo-2,3-dihydropyrimidin-4(1H)-one]",793 1/s per M
10,"COCCn1c(-c2ccncc2OC)cc(=O)[nH]c1=S [Example 296, 1-(2-methoxyethyl)-6-(3-methoxypyridin-4-yl)-2-thioxo-2,3-dihydropyrimidin-4(1H)-one]",1570 1/s per M
11,"COCCn1c(-c2ccnc(OC)c2)cc(=O)[nH]c1=S [Example 297, 1-(2-methoxyethyl)-6-(2-methoxypyridin-4-yl)-2-thioxo-2,3-dihydropyrimidin-4(1H)-one]",762 1/s per M
12,"COCCn1c(-c2ccc(Cl)cc2)cc(=O)[nH]c1=S [Example 298, 6-(4-chlorophenyl)-1-(2-methoxyethyl)-2-thioxo-2,3-dihydropyrimidin-4(1H)-one]",1080 1/s per M
13,"COCCn1c(-c2ccccc2Cl)cc(=O)[nH]c1=S [Example 299, 6-(2-chlorophenyl)-1-(2-methoxyethyl)-2-thioxo-2,3-dihydropyrimidin-4(1H)-one]",2060 1/s per M
14,"COCCn1c(-c2cccc(Cl)c2)cc(=O)[nH]c1=S [Example 300, 6-(3-chlorophenyl)-1-(2-methoxyethyl)-2-thioxo-2,3-dihydropyrimidin-4(1H)-one]",2460 1/s per M
15,"COCCn1c(-c2ccc3cc[nH]c3c2)cc(=O)[nH]c1=S [Example 301, 6-(1H-indol-6-yl)-1-(2-methoxyethyl)-2-thioxo-2,3-dihydropyrimidin-4(1H)-one]",3330 1/s per M
16,"COCCn1c(-c2cc3ccccc3[nH]2)cc(=O)[nH]c1=S [Example 302, 6-(1H-indol-2-yl)-1-(2-methoxyethyl) 2-thioxo-2,3-dihydropyrimidin-4(1H)-one]",3630 1/s per M
17,"COCCn1c(-c2ccc3[nH]ccc3c2)cc(=O)[nH]c1=S [Example 303, 6-(1H-indol-5-yl)-1-(2-methoxyethyl)-2-thioxo-2,3-dihydropyrimidin-4(1H)-one]",5270 1/s per M
18,"COCCn1c(-c2cccc3[nH]ccc23)cc(=O)[nH]c1=S [Example 304, 6-(1H-indol-4-yl)-1-(2-methoxyethyl)-2-thioxo-2,3-dihydropyrimidin-4(1H)-one]",6290 1/s per M
19,"COCCn1c(-c2coc3ccccc23)cc(=O)[nH]c1=S [Example 305, 6-(1-benzofuran-3-yl)-1-(2-methoxyethyl)-2-thioxo-2,3-dihydropyrimidin-4(1H)-one]",6370 1/s per M
20,"COCCn1c(-c2cc3ccccc3o2)cc(=O)[nH]c1=S [Example 306, 6-(1-benzofuran-2-yl)-1-(2-methoxyethyl)-2-thioxo-2,3-dihydropyrimidin-4(1H)-one]",6740 1/s per M

row,Structure (SMILES),MPO kinact/Ki
1,"COCCn1c(-c2cccc3ccoc23)cc(=O)[nH]c1=S [Example 307, 6-(1-benzofuran-7-yl)-1-(2-methoxyethyl)-2-thioxo-2,3-dihydropyrimidin-4(1H)-one]",14400 1/s per M
2,"COCCn1c(-c2ccc3c(c2)CCO3)cc(=O)[nH]c1=S [Example 308, 6-(2,3-dihydro-1-benzofuran-5-yl)-1-(2-methoxyethyl)-2-thioxo-2,3-dihydropyrimidin-4(1H)-one]",5340 1/s per M
3,"COCCn1c(-c2ccc3c(c2)OCO3)cc(=O)[nH]c1=S [Example 309, 6-(1,3-benzodioxol-5-yl)-1-(2-methoxyethyl)-2-thioxo-2,3-dihydropyrimidin-4(1H)-one]",3160 1/s per M
4,"CCOc1ccccc1-c1cc(=O)[nH]c(=S)n1CCOC [Example 310, 6-(2-ethoxyphenyl)-1-(2-methoxyethyl)-2-thioxo-2,3-dihydropyrimidin-4(1H)-one]",3110 1/s per M
5,"CCOc1ccc(-c2cc(=O)[nH]c(=S)n2CCOC)cc1 [Example 311, 6-(4-ethoxyphenyl)-1-(2-methoxyethyl)-2-thioxo-2,3-dihydropyrimidin-4(1H)-one]",2080 1/s per M
6,"COCCn1c(-c2cc(C)ccc2OC)cc(=O)[nH]c1=S [Example 312, 1-(2-methoxyethyl)-6-(2-methoxy-5-methylphenyl)-2-thioxo-2,3-dihydropyrimidin-4(1H)-one]",17100 1/s per M
7,"CCOc1ccc(-c2cc(=O)[nH]c(=S)n2CCOC)cn1 [Example 313, 6-(6-ethoxypyridin-3-yl)-1-(2-methoxyethyl)-2-thioxo-2,3-dihydropyrimidin-4(1H)-one]",973 1/s per M
8,"COCCn1c(-c2cnc(N(C)C)nc2)cc(=O)[nH]c1=S [Example 314, 2′-(dimethylamino)-3-(2-methoxyethyl)-2-thioxo-2,3-dihydro-4,5′-bipyrimidin-6(1H)-one]",429 1/s per M
9,"COCCn1c(-c2ccc(OC)c(F)c2)cc(=O)[nH]c1=S [Example 315, 6-(3-fluoro-4-methoxyphenyl)-1-(2-methoxyethyl)-2-thioxo-2,3-dihydropyrimidin-4(1H)-one]",1420 1/s per M
10,"COCCn1c(-c2ccc(OC)cc2F)cc(=O)[nH]c1=S [Example 316, 6-(2-fluoro-4-methoxyphenyl)-1-(2-methoxyethyl)-2-thioxo-2,3-dihydropyrimidin-4(1H)-one]",3060 1/s per M
11,"COCCn1c(-c2cc(F)ccc2OC)cc(=O)[nH]c1=S [Example 317, 6-(5-fluoro-2-methoxyphenyl)-1-(2-methoxyethyl)-2-thioxo-2,3-dihydropyrimidin-4(1H)-one]",7380 1/s per M
12,"COCCn1c(-c2ccc(F)cc2OC)cc(=O)[nH]c1=S [Example 318, 6-(4-fluoro-2-methoxyphenyl)-1-(2-methoxyethyl)-2-thioxo-2,3-dihydropyrimidin-4(1H)-one]",5240 1/s per M
13,"COCCn1c(-c2cccc3ccccc23)cc(=O)[nH]c1=S [Example 319, 1-(2-methoxyethyl)-6-(1-naphthyl)-2-thioxo-2,3-dihydropyrimidin-4(1H)-one]",7810 1/s per M
14,"COCCn1c(-c2cnc3ccccc3c2)cc(=O)[nH]c1=S [Example 320, 1-(2-methoxyethyl)-6-quinolin-3-yl-2-thioxo-2,3-dihydropyrimidin-4(1H)-one]",2390 1/s per M
15,"COCCn1c(-c2cccc3ncccc23)cc(=O)[nH]c1=S [Example 321, 1-(2-methoxyethyl)-6-quinolin-5-yl-2-thioxo-2,3-dihydropyrimidin-4(1H)-one]",2480 1/s per M
16,"COCCn1c(-c2cccc3cccnc23)cc(=O)[nH]c1=S [Example 322, 1-(2-methoxyethyl)-6-quinolin-8-yl-2-thioxo-2,3-dihydropyrimidin-4(1H)-one]",2800 1/s per M
17,"COCCn1c(-c2cc3ccccc3s2)cc(=O)[nH]c1=S [Example 323, 6-(1-benzothien-2-yl)-1-(2-methoxyethyl)-2-thioxo-2,3-dihydropyrimidin-4(1H)-one]",10200 1/s per M
18,"COCCn1c(-c2csc3ccccc23)cc(=O)[nH]c1=S [Example 324, 6-(1-benzothien-3-yl)-1-(2-methoxyethyl)-2-thioxo-2,3-dihydropyrimidin-4(1H)-one]",11300 1/s per M
19,"CNC(=O)c1cccc(-c2cc(=O)[nH]c(=S)n2CCOC)c1 [Example 325, 3-[3-(2-methoxyethyl)-6-oxo-2-thieno-1,2,3,6-tetrahydropyrimidin-4-yl]-N-methylbenzamide]",1160 1/s per M
